The source of these data is patent US20220323494A1, “Novel Control Switch” (GlaxoSmithKline Intellectual Property Development Limited, priority 2018, published 2022).

Data set [1] has as its system ARH-77-10B5 cells. Description: xCelligence cytotoxicity assay. Format: cell-based. Particulars: T-cells transduced with Construct 10; 10 μM BI224436. The method, then: Transduction of primary T-cells: Method described in Example 5
xCelligence cytotoxicity assay ARH-77-10B5 cells were as described in Example 1. BI224436 compound at a stock concentration of 100 mM in 100% DMSO was diluted in Jurkat media to achieve a stock concentration of 100 μM. xCelligence E-plates (ACEA, 06472460001) were coated with anti-CD40 tethering agent by following manufacturer's instructions for B-cell Killing (anti-CD40) Assay kit (ACEA, 8100004). Plates were inserted into the xCelligence station (ACEA) (37° C., 5% CO2) and allowed to equilibrate to 37° C. for 1 hour prior to taking background measurement. ARH-77-10B5 cells or Jurkat media were added to the plates (1×10^4 cells per well) and cultured for 20 h. Each T-cell population was incubated at a final concentration of 10 μM or 0 μM BI224436 in Jurkat media for 1 hour at 37° C. with 5% CO2. T-cells were added to the plates (1×10^4 cells per well, 1:1 effector:target ratio) and incubated in the xCelligence station for 24 hours. Data analysis was carried out using xCELLigence Immunotherapy Software (ACEA). The cell index for samples was normalized to the point of T-cell addition, then the normalized cell index for T-cells was divided by the normalized cell index of target cells alone to give the % viable cells at a given timepoint.

For data set [2], the system named is primary T-cells transduced with the HIV Integrase LEDGF/p75 OFF-switch CAR. Description: Cytokine release with titration of BI224436, primary T-cells transduced with Construct 13 (Example 6). The format is cell-based, human. The method, then: Lentiviral vector production and transduction of primary T-cells: Method for lentiviral production is described in Example 4 and method for primary T-cell transduction is described in Example 5.
Cytokine release: ARH-77-10B5 cells were cultured as described in Example 1. BI224436 compound at a stock concentration of 100 mM in 100% DMSO was diluted in Jurkat media to achieve a stock concentration of 100 μM. Each T-cell population was incubated at a final concentration of 10 μM, 3.3 μM, 1.1 μM, 0.37 μM, 0.12 μM, 0.04 μM, 0.013 μM, 0.004 μM, 0.001 μM or 0 μM (media alone) BI224436 in Jurkat media for 1 hour at 37° C. with 5% CO2. T-cells were then co-cultured (5×10^4 cells per well, 1:1 effector:target ratio) with ARH-77-10B5 cells (BCMA positive cells) for 24 hours in Jurkat media at 37° C. with 5% CO2. Cells were pelleted (1200 rpm, 5 min) and supernatants were collected. Supernatants were analysed for cytokine levels using MSD V-plex Proinflammatory Panel 1 Human Kit (MSD, K15049D-2) and MSD Sector Imager (MSD).

The subject of data set [3] is primary T-cells transduced with the HIV Integrase LEDGF/p75 OFF-CAR. Description: Cytokine release by primary T-cells transduced with OFF-switch CAR (Example 5). The format is cell-based, human. The note with it: T-cells transduced with Construct 10 and 11; 10 μM, ARH-77-10B5, 24 hour. The method, then:
Primary T-cell transduction and cytokine release: Peripheral blood mononuclear cells (PBMCs) from the fresh blood of two healthy human donors were isolated by density gradient centrifugation in Accuspin tubes (Sigma) containing 15 mL of Histopaque-1077 (Sigma) and following manufacturer's instructions. Cells were resuspended at 1×10^6 cells/mL in TEXMacs media (Miltenyi Biotec) containing 100 units/mL of IL-2 (Sigma) and TransAct beads (Miltenyi Biotec) and incubated for 48 hours at 37° C. with 5% CO2.
T-cells from the two donors were transduced with the lentiviral vectors encoding for CONSTRUCT 10 and CONSTRUCT 11. Transduction reactions were prepared to achieve an MOI of 5. T-cells were cultured in TEXMacs media (Miltentyi Biotec) with 100 units/mL of IL-2, fresh media was added every 3 days. ARH-77-10B5 cells were cultured as described in Example 1. BI224436 compound at a stock concentration of 100 mM in 100% DMSO was diluted in Jurkat media to achieve a stock concentration of 100 μM. Each T-cell population was incubated at a final concentration of 10 μM or 0 μM (media alone) BI224436 in Jurkat media for 1 hour at 37° C. with 5% CO2. […] Supernatants were analysed for cytokine levels using MSD V-plex Proinflammatory Panel 1 Human Kit (MSD, K15049D-2) and MSD Sector Imager (MSD).

In data set [4] the test system is K562 BCMA cells. Description: Flow cytometry cytotoxicity assay, BCMA-positive target cells. The note with it: for Effect of BI224436 on cytotoxicity: 10 μM BI224436. Format: cell-based. The method, then:
(§1) Isolation and transduction of CD4+ and CD8+ T-cells: Peripheral blood mononuclear cells (PBMCs) from the fresh blood of one healthy human donor was isolated by density gradient centrifugation in Accuspin tubes (Sigma) containing 15 mL of Histopaque-1077 (Sigma) and following manufacturer's instructions. CD4+ and CD8+ T cells were isolated using CD4 and CD8 microbeads (Miltenyi Biotec) and the AutoMACS Pro-separator (Miltenyi Biotec). Cells were resuspended at 1×10^6 cells/mL in TEXMacs media (Miltenyi Biotec) containing 100 units/mL of IL-7 (Sigma), 100 units/mL of IL-15 (Sigma) and TransAct beads (Miltenyi Biotec) and incubated for 48 hours at 37° C. with 5% CO2.
T-cells were transduced with lentiviral vectors encoding for CONSTRUCT 14 or CONSTRUCT 10. Transduced T-cells and untransduced (UT) T-cells were cultured in TEXMacs media (Miltenyi Biotec) with 100 units/mL of IL-7 (Sigma) and IL-15 (Sigma), and fresh media was added every 3 days. […] 1×10^5 of each T-cell population was stained with AlexaFluor 647 conjugated BCMA-Fc (generated in-house) to label theanti-BCMA scFv on the CARs. Measurements were made using a Cytoflex S (Beckman Coulter) and data analysed using FlowJo (FlowJo).
K562 BCMA cells (BCMA positive) were cultured in Jurkat media plus 0.8 mg/mL G418 (Gibco) and K562 cells (BCMA negative) were cultured in Jurkat media. Both cell lines were cultured at 37° C. with 5% CO2. BI224436 compound at a stock concentration of 100 mM in 100% DMSO (Sigma) was diluted in Jurkat media to achieve a stock concentration of 100 μM. K562 cells were stained with Cell Trace Far Red (0.5 μM, ThermoFisher) and K562 BCMA cells were stained with Cell Trace Violet (2.5 μM, ThermoFisher). […] 50 μL of each well was analysed on a Cytoflex S (Beckman Coulter) and data was analysed using FlowJo (FlowJo). The percentage of surviving K562 and K562 BCMA cells was calculated by dividing the number of K562 and K562 BCMA cells in each condition by the number of K562 and K562 BCMA cells found following co-culture with UT T-cells in 0 μM BI224436.

For data set [5], the system named is NFAT promoter in Jurkat cells. Description: NFAT-luciferase assay in Jurkat cells transfected with CAR constructs, co-cultured with ARH-77-10B5 cells. Format: cell-based. Particulars: 3 μM BI224436, 48 hours. The method, then:
NFAT-luc2 Jurkat cells (Promega) were cultured in Jurkat media: RPMI medium 1640 (1×) without L-glutamine with phenol red (Gibco), 10% (v/v) Fetal Bovine Serum (FBS) Heat-Inactivated (Gibco), 1% (v/v) Minimum essential medium non-essential amino acids (MEM NEAA) (ThermoFisher), 1% (v/v) Sodium Pyruvate (Sigma), 1% (v/v) L-Glutamine (Gibco). ARH-77-10B5 cells were cultured in Jurkat media plus 1 mg/mL G418 (Thermo, 10131035). Cells were incubated at 37° C. with 5% CO2 for 48 hours. 20 μg of plasmid DNA from each construct was mixed with 8×10^6 NFAT-luc2 Jurkat cells and cells were transfected using the 4D-Nucleofector (Lonza) with cell Line SE Nucleofector kit (Lonza) by following manufacturer instructions with program CL-120. BI224436 compound (Chemexpress HY-18595) at a stock concentration of 100 mM in 100% DMSO (Sigma, D2650) was diluted in Jurkat media to achieve a stock concentration of 100 μM. Using the 100 μM BI224436 stock in Jurkat media, NFAT-luc2 Jurkat cells were incubated at a final compound concentration of 3 μM for 48 hours at 37° C. with 5% CO2. NFAT-luc2 Jurkat cells were then co-cultured (1×10^5 cells per well, 1:1 effector:target ratio) with ARH-77-10B5 cells (BCMA positive cells) for 6.5 hours. NFAT-luciferase luminescence was measured by using the Bio-Glo Luciferase Assay System (Promega G7940) (following manufacturer's instructions) and an EnSpire Multimode Plate Reader (Perkin Elmer).

Data set [6] can be described thus: Plasma concentration of BI224436 in human subjects (clinical trial NCT01276990). The format is in vivo. Particulars: plasma 24 hours after 200 mg oral doses; IC50 is lower.
Data set [7] deals with K562 cells (BCMA negative). Description: Flow cytometry cytotoxicity assay, BCMA-negative target cells. The format is cell-based. The note with it: transduced primary T-cells, K562 WT, 1:1 or 4:1 effector:target, 48 hours. The method, then: as §1
T-cells were transduced with lentiviral vectors encoding for CONSTRUCT 14 or CONSTRUCT 10. […] Measurements were made using a Cytoflex S (Beckman Coulter) and data analysed using FlowJo (FlowJo).
K562 BCMA cells (BCMA positive) were cultured in Jurkat media plus 0.8 mg/mL G418 (Gibco) and K562 cells (BCMA negative) were cultured in Jurkat media. […] 50 μL of each well was analysed on a Cytoflex S (Beckman Coulter) and data was analysed using FlowJo (FlowJo). The percentage of surviving K562 and K562 BCMA cells was calculated by dividing the number of K562 and K562 BCMA cells in each condition by the number of K562 and K562 BCMA cells found following co-culture with UT T-cells in 0 μM BI224436.
Background: Flow cytometry measures light scatter and fluorescence of single cells or particles in a stream.

Regarding `Cc1nc2ccccc2c(-c2ccc3c4c(ccnc24)CCO3)c1[C@H](OC(C)(C)C)C(=O)O` [BI224436, 3-Quinolineacetic acid, 4-(2,3-dihydropyrano[4,3,2-de]quinolin-7-yl)-α-(1,1-dimethylethoxy)-2-methyl-,(αS,4R)-], in data set [1], the “Effect of BI224436 on cytotoxic response” value is reported as “reduced”. Moreover, the IC50 in data set [2] (Homo sapiens, T-cell, primary T-cells transduced with Construct 13, stimulated with ARH-77-10B5, 24 hours, read-out: IC50 concentration for cytokine release (TNF-alpha, IL-2, IFN-gamma)) came out at 100 nM. The “Effect of BI224436 concentration on level of TNF-alpha, IL-2 and IFN-gamma release” value in data set [2] (primary T-cells transduced with Construct 13, 0.001-10 μM titration) was “tunes the level”. Besides, in data set [3], the “Effect of compound on cytokine release” value was “attenuated”. The “Effect of BI224436 on cytotoxicity” value is on record as “effectively attenuates” in data set [4] (T-cells transduced with OFF-switch CAR (Construct 10)) and “does not affect” in data set [4] (T-cells transduced with conventional CAR (Construct 14)). Further, the “Effect of BI224436 on NFAT activation” value in data set [5] (Jurkat cells transfected with Construct 6) is reported as “preserved”; in data set [5] (Jurkat cells transfected with Construct 7) it was “preserved”; in data set [5] (Jurkat cells transfected with Constructs 1 to 4) it was “does not reduce the level of activation”. Moreover, the “IC50 concentration relative to plasma concentrations in human subjects” value in data set [6] is listed as 10 fold.

B1: Construct 14: conventional single chain CAR (SEQ ID NO: 52) that uses components from CONSTRUCT 10 (protein)
chain: MALPVTALLLPLALLLHAARPQVQLVQSGAEVKKPGSSVKVSCKGSGYTFTNYWMHWVRQAPGQGLEWIGATYRGHSDTYYNQKFKGRATLTADTSTSTAYMELSSLRSEDTAVYYCTRGAIYDGYDVLDNWGQGTLVTVSSGGGGSGGGGSGGGGSGGGGSDIQMTQSPSSLSASVGDRVTITCSASQDISNYLNWYQQKPGKAPKLLIYYTSNLHSGVPSRFSGSGSGTDFTLTISSLQPEDFATYYCQQYRKLPWTFGQGTKLEIKRFVPVFLPAKPTTTPAPRPPTPAPTIASQPLSLRPEACRPAAGGAVHTRGLDFACDIYIWAPLAGTCGVLLLSLVITLYCNHRNKRGRKKLLYIFKQPFMRPVQTTQEEDGCSCRFPEEEEGGCELRVKFSRSADAPAYQQGQNQLYNELNLGRREEYDVLDKRRGRDPEMGGKPRRKNPQEGLYNELQKDKMAEAYSEIGMKGERRRGKGHDGLYQGLSTATKDTYDALHMQALPPR
modifications: Construct 14 amino acid sequence
On to B1, for which the “Killing of BCMA-positive cells” value in data set [4] (transduced primary T-cells, K562 BCMA, 1:1 or 4:1 effector:target, 48 hours) is “kill BCMA-positive cells”. Moreover, in data set [7], the “Killing of BCMA-negative cells” value was “not BCMA-negative cells”.
